The values below come from US20230014445A1, “ALLOSTERIC CHROMENONE INHIBITORS OF PHOSPHOINOSITIDE 3-KINASE (PI3K) FOR THE TREATMENT OF DISEASE” (Petra Pharma Corporation, priority 2021, published 2023).

The target in test [1] is T1, human full length PIK3KA H1047R mutant (p110α/p85α complex) (Homo sapiens, UniProt P42336, H1047R).
T1 construct: Recombinant, catalytically active human full length PIK3KA Wild-type and H1047R mutant were purchased; 6xHis (N); purchased EMD Millipore Sigma 14-792M
The experiment in a line: PI3K-Alpha Kinase (PIK3CA) biochemical activity, H1047R mutant (ADP-Glo). As to conditions: Soy PI lipid substrate, 20 uM ATP. The essentials: (§1)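 ADP formation, measured by ADP-Glo luminescence after reaction to about 10% ATP conversion at 27° C., gives 10-point 4-parameter IC50 curves normalized to no-enzyme and DMSO controls. Lipid substrate was PIP2diC8 or Soy PI at 50 uM, with 20 uM ATP. WT or H1047R p110α/p85α complex (1-5 nM) was preincubated 1 h with compound.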
(In general: ADP-Glo turns the ADP formed in a reaction into a luminescent signal.)

The target in test [2] is PI3K-α (PIK3CA) in MDA-MB-453 cells (Homo sapiens, UniProt P42336). The experiment in a line: PI3K-Alpha Kinase (PIK3CA) activity in vitro cell based assay (AlphaLisa SureFire). As for the experimental part:
PI3K-Alpha Kinase (PIK3CA) Activity In Vitro Cell Based Assay and Determining IC50 Values for Inhibitors
The MDA-MB-453 (ATCC-HTB-131) cell line was obtained from the American Type Culture Collection (Manassas, Va.). Cells were maintained in Dulbecco's Modified Eagle Media (DMVEM, Gibco 11965-092) supplemented with 10% Fetal Bovine Serum, heat inactivated (FBS HI, Gibco 10082-147), 1× non-essential amino acids (NEAA, Gibco 11140-050), and 1 mM sodium pyruvate (Gibco 11360-070). Cultures were maintained in a humidified incubator at 37° C. under […].
For compound testing in 0% FBS, MDA-MB-453 cells were seeded at a density of 1.5×10^4 cells per well in white 384-well plates in 20 μl of Minimum Essential Media (MEM) assay media with 1×NEAA, 1 mM sodium pyruvate, and 1 μg/mL human insulin (Sigma I9278). Compounds dissolved in 10 mM stock solutions in DMSO were serially diluted 1:3 in DMSO to generate a 10-point dilution series and plated using an acoustic liquid handler system (Echo 550 Series Liquid Handler, Labcyte). A 5× intermediate compound dilution plate in MEM with 1×NEAA and 1 mM sodium pyruvate (150 μM starting compound concentration in 1.5% DMSO) was then prepared. Five μl of the intermediate serially diluted compounds were added to the cell plate to final concentrations ranging from […] in 0.3% DMSO. 0.3% DMSO alone was used to establish the maximum (MAX) signal and GDC-0032 at a final concentration of 1 μM was used as a reference compound for the minimum (MIN) signal. After 3 hours treatment, the medium was removed, and the cells lysed in 10 μL of 1× SureFire Lysis buffer with shaking for 10 minutes at room temperature. The Acceptor Mix (Reaction Buffer 1+Reaction Buffer 2+Activation Buffer+SureFire Ultra Acceptor Beads) was prepared by diluting Activation buffer 25-fold in combined Reaction Buffer 1 and Reaction Buffer 2. The Acceptor beads were diluted 50-fold in the combined Reaction Buffers. Five μL of Acceptor Mix was added to each well, the plate was sealed and covered with foil and incubated for 1 hour at room temperature. The Donor Mix (dilution buffer+SureFire Ultra Donor Beads) was prepared by diluting Donor Beads 50-fold in dilution buffer. Five μL of the Donor Mix was added to each well and the plate sealed and covered with foil and incubated for 1 hour at room temperature in the dark. The plates were read on a Neo2 plate reader instrument from Biotek using standard AlphaLisa settings.
Compounds were tested in duplicate and the average % inhibition at each compound concentration was used to generate a single dose response curve. The data were processed using the Genedata-Screener tool. Relative IC50 values were determined using luminescence units by calculating percent inhibition with respect to the in-plate “MIN” (GDC-0032 reference control) and “MAX” (DMSO) controls. The data was analyzed using a 4-parameter nonlinear logistic equation (four-parameter logistic concentration-response curve):
Y=bottom+[(top−bottom)/1+(X/IC50)slope]
where Y=% inhibition, X=concentration of inhibitor, bottom=minimum value of y attained by curve-fit, top=maximum value of y attained by curve-fit and slope=steepness of curve at the IC50.
% Inhibition=[(signal at X−median Min)/(median Max−median Min)]×100
IC50: concentration of compound that reduces a given response (ligand binding, enzyme response) by 50%. Relative IC50: concentration giving half the compound's maximum response.
For IC50 values shown in Table B, “A” means IC50<50 nM; “B” means IC50 ranging between 50 nM and 100 nM; “C” means IC50 ranging between 100 nM and 500 nM; “D” means IC50>500 nM.

For test [3], the target named is T2, human full length PIK3KA Wild-type (p110α/p85α complex) (Homo sapiens, UniProt P42336).
T2 construct: Recombinant, catalytically active human full length PIK3KA Wild-type and H1047R mutant were purchased; 6xHis (N); purchased EMD Millipore Sigma 14-602M
The experiment in a line: PI3K-Alpha Kinase (PIK3CA) biochemical activity, wild-type (ADP-Glo). As to conditions: Soy PI lipid substrate, 20 uM ATP. In short, it runs like this:
as §1

The mark [4] stands for this setting: read-out: PI3K-α (PIK3CA) in vitro cell based assay IC50, 0% FBS, 3 hours treatment.
The mark [5] stands for this setting: 0% FBS, 3 hours treatment, read-out: PI3K-α (PIK3CA) in vitro cell based assay IC50.

As a reminder, the IC50 is the concentration that gives 50% inhibition.

Read-outs that look alike come from different tables or passages of the source.

T1 sequence (P42336 whole entry H1047R): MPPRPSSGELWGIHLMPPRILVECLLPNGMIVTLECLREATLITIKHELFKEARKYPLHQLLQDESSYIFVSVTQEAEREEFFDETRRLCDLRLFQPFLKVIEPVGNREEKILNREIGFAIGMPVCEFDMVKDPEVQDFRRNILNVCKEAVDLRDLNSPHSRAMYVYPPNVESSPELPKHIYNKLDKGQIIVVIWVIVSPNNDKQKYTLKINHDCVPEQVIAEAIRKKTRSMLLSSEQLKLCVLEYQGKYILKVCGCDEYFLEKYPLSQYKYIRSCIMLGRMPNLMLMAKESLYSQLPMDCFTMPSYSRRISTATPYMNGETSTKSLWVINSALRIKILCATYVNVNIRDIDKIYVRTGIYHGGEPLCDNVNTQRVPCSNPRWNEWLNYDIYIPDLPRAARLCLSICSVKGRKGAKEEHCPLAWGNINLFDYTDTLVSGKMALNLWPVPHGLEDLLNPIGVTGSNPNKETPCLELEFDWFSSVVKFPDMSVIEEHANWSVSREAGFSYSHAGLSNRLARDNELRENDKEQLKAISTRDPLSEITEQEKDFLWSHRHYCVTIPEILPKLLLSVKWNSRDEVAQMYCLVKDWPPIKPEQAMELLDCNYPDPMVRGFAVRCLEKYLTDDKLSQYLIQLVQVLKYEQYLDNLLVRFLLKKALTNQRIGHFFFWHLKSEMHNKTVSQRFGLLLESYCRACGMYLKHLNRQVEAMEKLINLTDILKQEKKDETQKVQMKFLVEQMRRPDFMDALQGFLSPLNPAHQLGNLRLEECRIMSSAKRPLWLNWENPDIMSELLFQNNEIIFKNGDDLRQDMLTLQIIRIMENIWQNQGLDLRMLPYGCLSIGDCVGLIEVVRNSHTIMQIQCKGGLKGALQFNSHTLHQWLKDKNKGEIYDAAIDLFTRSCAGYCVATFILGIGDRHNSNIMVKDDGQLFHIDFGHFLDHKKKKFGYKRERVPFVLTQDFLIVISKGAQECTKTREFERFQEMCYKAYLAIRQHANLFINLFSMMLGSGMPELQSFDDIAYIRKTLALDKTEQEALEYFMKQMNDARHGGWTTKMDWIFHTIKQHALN
T1 sequence (P27986 whole entry partner): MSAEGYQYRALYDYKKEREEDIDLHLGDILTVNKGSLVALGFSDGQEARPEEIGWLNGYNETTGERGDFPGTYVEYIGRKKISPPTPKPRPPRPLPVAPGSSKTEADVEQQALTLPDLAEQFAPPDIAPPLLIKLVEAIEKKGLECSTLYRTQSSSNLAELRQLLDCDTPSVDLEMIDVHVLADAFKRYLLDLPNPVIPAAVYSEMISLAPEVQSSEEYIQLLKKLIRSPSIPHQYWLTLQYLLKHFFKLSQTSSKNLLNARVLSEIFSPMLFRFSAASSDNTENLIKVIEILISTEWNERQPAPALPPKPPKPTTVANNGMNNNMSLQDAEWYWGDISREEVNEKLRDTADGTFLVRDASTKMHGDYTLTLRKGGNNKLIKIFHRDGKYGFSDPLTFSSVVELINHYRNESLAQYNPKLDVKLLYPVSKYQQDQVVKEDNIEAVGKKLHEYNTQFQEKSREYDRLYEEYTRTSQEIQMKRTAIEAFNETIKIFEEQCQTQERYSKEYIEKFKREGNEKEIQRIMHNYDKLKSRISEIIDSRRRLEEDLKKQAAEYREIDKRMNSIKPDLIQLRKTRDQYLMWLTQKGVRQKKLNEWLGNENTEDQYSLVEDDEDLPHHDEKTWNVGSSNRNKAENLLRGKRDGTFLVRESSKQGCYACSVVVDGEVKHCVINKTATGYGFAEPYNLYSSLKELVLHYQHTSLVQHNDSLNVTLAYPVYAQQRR
Chain of PI3K-α (PIK3CA) in MDA-MB-453 cells (P42336 whole entry): as the sequence (P42336 whole entry H1047R) above, with R1047H counted along it
Chain of PI3K-α (PIK3CA) in MDA-MB-453 cells (P27986 2-724, further chain): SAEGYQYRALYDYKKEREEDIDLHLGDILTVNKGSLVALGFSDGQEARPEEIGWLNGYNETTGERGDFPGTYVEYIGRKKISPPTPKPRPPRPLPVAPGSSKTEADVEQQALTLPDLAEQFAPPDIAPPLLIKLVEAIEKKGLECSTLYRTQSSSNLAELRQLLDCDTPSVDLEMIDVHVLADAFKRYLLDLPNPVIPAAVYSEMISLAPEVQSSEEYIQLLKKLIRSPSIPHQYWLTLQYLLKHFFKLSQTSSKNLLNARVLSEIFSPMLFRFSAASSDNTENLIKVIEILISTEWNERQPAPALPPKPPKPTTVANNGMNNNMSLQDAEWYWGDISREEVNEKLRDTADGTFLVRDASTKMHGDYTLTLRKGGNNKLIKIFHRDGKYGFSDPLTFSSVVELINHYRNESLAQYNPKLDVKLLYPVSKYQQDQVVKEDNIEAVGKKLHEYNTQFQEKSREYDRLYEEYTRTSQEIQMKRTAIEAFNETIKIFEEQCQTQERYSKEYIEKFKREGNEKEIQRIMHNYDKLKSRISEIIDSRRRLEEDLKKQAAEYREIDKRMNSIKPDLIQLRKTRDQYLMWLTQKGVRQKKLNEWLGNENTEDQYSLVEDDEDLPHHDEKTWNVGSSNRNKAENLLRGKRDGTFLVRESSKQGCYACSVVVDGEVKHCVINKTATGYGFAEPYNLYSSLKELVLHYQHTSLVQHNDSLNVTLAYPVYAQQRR

For `Cc1cc(C(C)Nc2ccccc2C(=O)O)c2oc(-c3cncc(F)c3)cc(=O)c2c1` (single isomer, unassigned) [Example 44, 2-[1-[2-(5-Fluoro-3-pyridyl)-6-methyl-4-oxo-chromen-8-yl]ethylamino]benzoic acid, Isomer 2,2,2,2-trifluoroacetic acid], the results for the IC50 in test [1], in test [2] (setting [4]) and in test [3] were less than 500 nM, less than 50 nM and 1000 to 5000 nM, respectively.

For `Cc1cc(C(C)Nc2ccc(Cl)nc2C(=O)O)c2oc(-c3ccccn3)c(C)c(=O)c2c1` (single isomer, unassigned; isomer 1) [Example 60, 6-Chloro-3-[1-[3,6-dimethyl-4-oxo-2-(2-pyridyl)chromen-8-yl]ethylamino]pyridine-2-carboxylic acid, Isomer 1], the IC50 in test [1] is less than 500 nM; in test [2] (setting [5]), less than 50 nM; in test [3], 500 to 1000 nM.

In the case of `Cc1cc(C(C)Nc2ccc(F)c(F)c2C(=O)O)c2oc(-c3cnn(-c4ccc(C#N)cc4)c3)cc(=O)c2c1` (single isomer, unassigned; isomer 1) [Example 114, 6-[1-[2-[1-(4-Cyanophenyl)pyrazol-4-yl]-6-methyl-4-oxo-chromen-8-yl]ethylamino]-2,3-difluoro-benzoic acid, Isomer 1], the IC50 in test [1] is 1000 to 5000 nM; in test [2] (setting [5]), greater than 500 nM; in test [3], 5000 to 10000 nM.

Turning to `Cc1cc(C(C)Nc2ccc(C)nc2C(=O)O)c2oc(-c3cncc(F)c3)c(C)c(=O)c2c1` (single isomer, unassigned; isomer 1) [Example 123, 3-[1-[2-(5-Fluoro-3-pyridyl)-3,6-dimethyl-4-oxo-chromen-8-yl]ethylamino]-6-methyl-pyridine-2-carboxylic acid, Isomer 1], the IC50 in test [1] is less than 500 nM; in test [2] (setting [5]) it was less than 50 nM; in test [3] it was 1000 to 5000 nM.

On to `Cc1cc(C(C)Nc2ccccc2C(=O)O)c2oc(-c3cnn(-c4cccnc4)c3)cc(=O)c2c1` (single isomer, unassigned; isomer 1) [Example 49, 2-[1-[6-Methyl-4-oxo-2-[1-(3-pyridyl)pyrazol-4-yl]chromen-8-yl]ethylamino]benzoic acid, Isomer 1], for which the IC50 in test [1] is greater than 10000 nM; in test [2] (setting [5]), greater than 500 nM; in test [3] it was greater than 10000 nM.

With `Cc1cc(C(C)Nc2ccc(Cl)nc2C(=O)O)c2oc(-c3cccnc3)c(C)c(=O)c2c1` (single isomer, unassigned; isomer 1) [Example 115, 6-Chloro-3-[1-[3,6-dimethyl-4-oxo-2-(3-pyridyl)chromen-8-yl]ethylamino]pyridine-2-carboxylic acid, Isomer 1], the IC50 in test [1] is less than 500 nM; in test [2] (setting [5]), less than 50 nM; in test [3], 500 to 1000 nM.

`Cc1cc(C(C)Nc2ccc(F)cc2C(=O)O)c2oc(-c3cccnc3)c(C)c(=O)c2c1` (single isomer, unassigned; isomer 1) [Example 120, 2-[1-[3,6-Dimethyl-4-oxo-2-(3-pyridyl)chromen-8-yl]ethylamino]-5-fluoro-benzoic acid, Isomer 1]: the IC50 in test [1] was less than 500 nM; in test [2] (setting [5]) it was less than 50 nM; in test [3], 1000 to 5000 nM.

In the case of `COc1ncc(-n2cc(-c3oc4c(C(C)Nc5ccccc5C(=O)O)cc(C)cc4c(=O)c3C)cn2)cn1` (single isomer, unassigned) [Example 72, 2-[1-[2-[1-(2-Methoxypyrimidin-5-yl)pyrazol-4-yl]-3,6-dimethyl-4-oxo-chromen-8-yl]ethylamino]benzoic acid, Isomer 1,2,2,2-trifluoroacetic acid], the IC50 is less than 500 nM in test [1], 50 to 100 nM in test [2] (setting [4]) and 1000 to 5000 nM in test [3].

Consider `COc1ccc(-n2cc(-c3cc(=O)c4cc(C)cc(C(C)Nc5ccccc5C(=O)O)c4o3)cn2)cn1` (single isomer, unassigned) [Example 81, 2-[1-[2-[1-(6-Methoxy-3-pyridyl)pyrazol-4-yl]-6-methyl-4-oxo-chromen-8-yl]ethylamino]benzoic acid, Isomer 2,2,2,2-trifluoroacetic acid], for which the IC50 in test [1] fell in the range of 500 to 1000 nM; in test [2] (setting [4]), 50 to 100 nM; in test [3], 5000 to 10000 nM.
